Assay results from patent US4722927A, “Pyrimidine amides of oleic or linoleic acid, composition containing them and their use as inhibitors of acyl-CoA cholesterol acyltransferase” (Warner-Lambert Company, priority 1986, dated 1988).

Biological target: T1, acyl-CoA:cholesterol acyltransferase (ACAT) (Oryctolagus cuniculus, UniProt G1SFD9)
T1 construct: a tissue preparation containing rabbit intestinal microsomes; from tissue; host or cells: rabbit intestinal microsomes
T1 sequence (G1SFD9 1-524): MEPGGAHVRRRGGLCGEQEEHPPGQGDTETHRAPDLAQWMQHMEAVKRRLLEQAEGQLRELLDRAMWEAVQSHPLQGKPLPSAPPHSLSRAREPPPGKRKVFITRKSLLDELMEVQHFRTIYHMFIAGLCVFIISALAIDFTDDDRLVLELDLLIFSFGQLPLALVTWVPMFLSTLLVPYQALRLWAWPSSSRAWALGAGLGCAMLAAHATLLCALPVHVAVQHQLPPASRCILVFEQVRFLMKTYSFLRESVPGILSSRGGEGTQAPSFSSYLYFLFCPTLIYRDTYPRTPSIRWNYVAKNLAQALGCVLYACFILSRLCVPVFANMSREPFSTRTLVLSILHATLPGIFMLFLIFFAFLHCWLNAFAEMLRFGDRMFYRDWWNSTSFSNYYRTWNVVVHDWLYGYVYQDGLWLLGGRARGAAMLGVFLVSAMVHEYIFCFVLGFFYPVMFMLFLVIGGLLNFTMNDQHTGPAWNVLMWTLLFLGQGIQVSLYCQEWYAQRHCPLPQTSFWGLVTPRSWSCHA
Assay: In vitro inhibition of ACAT: radio-labeled cholesterol oleate formed from radio-labeled oleic acid in rabbit intestinal microsomes
Assay type: biochemical
Experimental: The ability of representative compounds of the present invention to inhibit ACAT was measured using an in vitro test more fully described in Field, F. J. and Salone, R. G., Biochemica et Biophysica 712: 557-570 (1982). The test assesses the ability of a test compound to inhibit the acylation of cholesterol by oleic acid by measuring the amount of radio-labeled cholesterol oleate formed from radio-labeled oleic acid in a tissue preparation containing rabbit intestinal microsomes.
The data appear in Table 1 where they are expressed as IC50 values; i.e. the concentration of test compound required to inhibit 50% […] of the enzyme.

IC50 [nM]	Structure (SMILES)
530	CCCCCCCC/C=C\CCCCCCCC(=O)Nc1c(OCC)ncnc1OCC [(Z)-N-(4,6-diethoxy-5-pyrimidinyl)-9-octadecenamide]
200	CCCCCCCC/C=C\CCCCCCCC(=O)Nc1c(OC)ncnc1OC [(Z)-N-(4,6-dimethoxy-5-pyrimidinyl)-9-octadecenamide]
